Read-outs that look alike come from different tables or passages of the source.
Legend:
[1] = target: T1, recombinant mouse FAPα (rmFAPα) (Mus musculus, UniProt P97321); experiment: FAPα enzymatic exopeptidase (dipeptidase) activity assay; assay type: biochemical; conditions: exopeptidase, read-out: rmFAPα (exo IC50)
T1 construct: purchased R&S system (so in the source)
T1 sequence (P97321 1-761): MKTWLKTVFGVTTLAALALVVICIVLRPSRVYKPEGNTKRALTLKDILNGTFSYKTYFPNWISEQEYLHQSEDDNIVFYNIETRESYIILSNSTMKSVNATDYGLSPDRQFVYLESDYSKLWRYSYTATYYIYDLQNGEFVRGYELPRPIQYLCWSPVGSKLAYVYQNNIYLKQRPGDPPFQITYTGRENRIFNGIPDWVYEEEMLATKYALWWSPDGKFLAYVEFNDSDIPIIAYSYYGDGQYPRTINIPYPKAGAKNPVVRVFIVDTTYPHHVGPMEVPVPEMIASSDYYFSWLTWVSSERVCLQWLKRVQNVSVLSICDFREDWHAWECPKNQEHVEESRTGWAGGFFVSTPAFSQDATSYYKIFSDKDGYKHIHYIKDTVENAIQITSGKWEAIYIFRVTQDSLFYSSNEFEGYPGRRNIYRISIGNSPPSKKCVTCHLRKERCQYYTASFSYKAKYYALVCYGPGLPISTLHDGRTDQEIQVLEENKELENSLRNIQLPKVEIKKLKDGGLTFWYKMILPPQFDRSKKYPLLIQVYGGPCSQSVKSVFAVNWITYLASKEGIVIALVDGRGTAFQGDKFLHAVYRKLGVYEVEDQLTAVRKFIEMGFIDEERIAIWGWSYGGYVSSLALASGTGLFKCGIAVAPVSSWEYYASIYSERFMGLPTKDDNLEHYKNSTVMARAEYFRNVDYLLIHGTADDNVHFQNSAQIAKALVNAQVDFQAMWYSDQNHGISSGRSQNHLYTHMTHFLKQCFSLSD

[2] = target: T2, recombinant mouse DPPIV (rmDPPIV) (Mus musculus, UniProt P28843); experiment: DPPIV enzymatic activity assay; assay type: biochemical; conditions: H-Gly-Pro-pNA substrate
T2 construct: purchased R&S system (so in the source)

[3] = tested on: MC38 mouse colon cancer cell line; experiment: Tumor inhibition in vivo (MC38 tumor in C57/BL6 mice); conditions: 50 mg/kg orally twice daily from day 7 to day 22; no statistical significance observed
Description: Female C57/BL6 mice (approximately 8-9 weeks old; 20-21 gr) obtained from the vivarium of Fundación Ciencia & Vida (Santiago, Chile) were maintained in a temperature-controlled room with 12/12 hour light/dark schedule with food and water ad libitum. The mice were acclimated for a minimum period of 4 days upon arrival at the testing facility.
MC38 mouse colon cancer cell line was maintained as monolayer culture in DMEM-F12 (Cat. No.: SH30023.01, Hyclone) supplemented with 10% fetal bovine serum (Cat. No.: 16000, Gibco) and penicillin/streptomycin (Cat. No.: 15140122, Gibco) at 37° C. in an atmosphere with 5% CO2. The cells were routinely subcultured every 3 days to maintain growth at exponential phase. […] Cell pellet was resuspended in approximately 10× volume of cell culture medium and counted. Cell viability was determined to be >95% by trypan blue staining.
At the day of inoculation, female C57/B16 mice (n=15 total) were weighed and identified by marking the tail with numbers using a non-toxic permanent marker. […] Tumors were measured three times per week with digital calipers and tumors volumes, expressed in mm^3, were calculated with the following formula: Tumor volume (mm^3)=(a×b^2)/2 […]
Seven days after inoculation, mean tumor volume was about 100 mm^3. […] Body weight of the mice and tumor volume was recorded two or three times per week for a total of 22 days. […]

[4] = target: T1, recombinant mouse FAPα (rmFAPα); experiment: FAPα enzymatic exopeptidase (dipeptidase) activity assay; assay type: biochemical; conditions: 1 μM test compound; Z-Gly-Pro-AMC substrate; read-out: rmFAPα (% exo inh @ 1 μM)
Outline: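 AMC release read by fluorescence at Ex/Em 380/460 nm. Substrate-only (no enzyme) wells subtracted as blank; percent inhibition relative to vehicle + enzyme + substrate as maximal activity. Single-point measurement, run in duplicate.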

T2 sequence (P28843 whole entry): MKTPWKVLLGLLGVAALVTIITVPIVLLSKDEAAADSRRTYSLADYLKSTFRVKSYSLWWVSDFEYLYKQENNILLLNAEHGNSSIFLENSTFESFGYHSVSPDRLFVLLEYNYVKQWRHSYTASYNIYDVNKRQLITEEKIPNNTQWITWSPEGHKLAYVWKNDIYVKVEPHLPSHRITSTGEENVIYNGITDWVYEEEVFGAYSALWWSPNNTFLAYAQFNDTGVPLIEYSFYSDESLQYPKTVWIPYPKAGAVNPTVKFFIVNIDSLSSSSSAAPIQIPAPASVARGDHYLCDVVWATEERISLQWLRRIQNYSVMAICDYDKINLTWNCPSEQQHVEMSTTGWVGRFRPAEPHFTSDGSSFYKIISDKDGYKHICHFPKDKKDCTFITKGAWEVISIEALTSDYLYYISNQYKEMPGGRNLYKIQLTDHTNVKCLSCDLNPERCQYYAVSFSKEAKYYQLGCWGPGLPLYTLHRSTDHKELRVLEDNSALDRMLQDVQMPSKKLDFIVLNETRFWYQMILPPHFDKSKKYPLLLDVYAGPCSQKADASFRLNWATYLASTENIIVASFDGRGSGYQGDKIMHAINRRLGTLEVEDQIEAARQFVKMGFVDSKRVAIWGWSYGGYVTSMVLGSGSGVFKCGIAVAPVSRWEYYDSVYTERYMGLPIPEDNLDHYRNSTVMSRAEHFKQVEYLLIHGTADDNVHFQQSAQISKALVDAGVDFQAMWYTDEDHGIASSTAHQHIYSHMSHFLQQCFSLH

| SMILES | IC50 ([1]; Table 2, Z-Gly-Pro-AMC) [µM] | IC50 ([1]; Table 3) [µM] | IC50 [2] [µM] | tumor volume vs vehicle [3] | inhibition at 1 µM [4] [%] |
| --- | --- | --- | --- | --- | --- |
| N#C[C@@H]1CC(F)(F)CN1C(=O)CNC(=O)c1ccncc1-c1ccccc1 [Compound 13, (S)—N-(2-(2-cyano-4,4-difluoropyrrolidin-1-yl)-2-oxoethyl)-3-phenylisonicotinamide] | < 1 | < 1 | > 10 |  |  |
| N#C[C@@H]1CC(F)(F)CN1C(=O)CNC(=O)c1c[nH]c(=O)c(-c2ccccc2)c1 [Compound 14, (S)—N-(2-(2-cyano-4,4-difluoropyrrolidin-1-yl)-2-oxoethyl)-6-oxo-5-phenyl-1,6-dihydropyridine-3-carboxamide] |  |  | > 10 |  |  |
| N#C[C@@H]1CC(F)(F)CN1C(=O)CNC(=O)c1ccncc1C1CC1 [Compound 24, (S)—N-(2-(2-cyano-4,4-difluoropyrrolidin-1-yl)-2-oxoethyl)-3-cyclopropylisonicotinamide] | < 1 | < 1 |  | smaller volume of tumor |  |
| N#C[C@@H]1CC(F)(F)CN1C(=O)CNC(=O)c1ccncc1-c1ccc(F)cc1 [Compound 52, (S)—N-(2-(2-cyano-4,4-difluoropyrrolidin-1-yl)-2-oxoethyl)-3-(4-fluorophenyl)isonicotinamide] | < 1 | < 1 |  |  |  |
| N#C[C@@H]1CC(F)(F)CN1C(=O)CNC(=O)c1ccncc1N1CCOCC1 [Compound 88, N-[2-[(2S)-2-cyano-4,4-difluoro-pyrrolidin-1-yl]-2-oxo-ethyl]-3-morpholino-pyridine-4-carboxamide] |  | < 1 |  |  |  |
| N#C[C@@H]1CC(F)(F)CN1C(=O)CNC(=O)c1c[nH]c(=O)c2ccccc12 [Example 1, (S)—N-(2-(2-cyano-4,4-difluoropyrrolidin-1-yl)-2-oxoethyl)-1-oxo-1,2-dihydroisoquinoline-4-carboxamide] | < 1 | < 1 | 1 to 10 |  | > 50 |
